# Laboratory results published in patent US11026999B2, “Insulin glargine/lixisenatide fixed ratio formulation” (SANOFI-AVENTIS DEUTSCHLAND GMBH, priority 2013, dated 2021).
# Tests used:
# Assay type in all cases: in vivo, human
# type 2 diabetic patients [1] = assay: HbA1c, 24-week phase 2 study on top of metformin (Example 1); conditions: mITT population; for HbA1c change from baseline to Week 24 (LOCF), LS Mean (SE): ANCOVA
# Method: A randomized, 24-week, open-label, 2-arm parallel-group, multicenter study comparing the efficacy and safety of insulin glargine/lixisenatide fixed ratio combination versus insulin glargine on top of metformin in type 2 diabetic patients.
# Methodology: This was an open-label, 1:1 randomized, active-controlled, 2-arm, 24-week duration, parallel-group study comparing: • Insulin glargine/lixisenatide fixed ratio (2 U of insulin glargine for 1 μg of lixisenatide) combination • Insulin glargine alone
# Diagnosis and criteria for inclusion: Patients with type 2 diabetes mellitus diagnosed for at least 1 year, treated with metformin at a stable dose of at least 1.5 g/day for at least 3 months prior to screening visit, and with HbA1c ≥7%, and ≤10% at screening.
# In both groups, the initial daily dose of insulin glargine to be administered during the first week of treatment was 10 U. Afterwards, the dose was adjusted to achieve a target fasting SMPG in the range of 80 to 100 mg/dL (4.4 to 5.6 mmol/L). The dose was titrated weekly until the patient reached the target fasting SMPG. Thereafter, until the end of the study, the dose was adjusted as necessary to maintain a fasting SMPG between 80 and 100 mg/dL (4.4 and 5.6 mmol/1), inclusive. Doses could be reduced or modified at any time for hypoglycemia.
# If a 60 U/30 μg dose was not sufficient to maintain FPG/HbA1c below predefined thresholds values, the dose was to be kept at 60 U and a rescue therapy was to be introduced.
# (§1) Criteria for Evaluation: • Efficacy: • Primary Endpoint: • Change in HbA1c from baseline to Week 24 • Secondary Endpoints: • Change in 2-hour PPG during meal test from baseline to Week 24 • Change in 2-hour plasma glucose excursion during meal test from baseline to Week 24 • Percentage of patients reaching HbA1c ≤6.5% or <7% at Week 24 • Change in 7-point SMPG profiles from baseline to Week 24 (each time point and mean daily value) • Change in body weight from baseline to Week 24, • Average daily Insulin glargine dose at Week 24 • Change in FPG from baseline to Week 24 • Percentage of patients requiring rescue therapy during the 24-week open-label treatment period • Change in 30-minute and 1-hour PPG and plasma glucose excursion during meal test from baseline to week 24 • Percentage of patients reaching HbA1c <7% at week 24 with no documented symptomatic hypoglycemia during the 24-week open label treatment period • Percentage of patients reaching HbA1c <7% with no weight gain at week 24
# The primary endpoint (change in HbA1c from baseline to week 24) was analyzed using an analysis of covariance (ANCOVA) model with treatment (insulin glargine/lixisenatide fixed ratio combination, insulin glargine alone), randomization strata of screening HbA1c (<8%, ≥8%), randomization strata of screening BMI (<30 kg/m^2, ≥30 kg/m^2) and country as fixed effects and using the baseline HbA1c value as a covariate.
# The non-inferiority of insulin glargine/lixisenatide fixed ratio combination to insulin glargine alone was tested using a 1-sided statistical test with alpha level of 0.025 and a non-inferiority margin of 0.4% HbA1c. […] If non-inferiority is established, then a corresponding check of statistical superiority of insulin glargine/lixisenatide fixed ratio combination over insulin glargine alone would be performed for the primary endpoint.
# All categorical secondary efficacy endpoints were analyzed by using Cochran-Mantel-Haenszel (CMH) method stratified by randomization strata of screening HbA1c (<8%, ≥8%) and BMI (<30 kg/m^2, ≥30 kg/m^2).
# type 2 diabetic patients [2] = assay: 2-hour postprandial plasma glucose during standardized meal test (Example 1); conditions: mITT; for 2-hour postprandial plasma glucose change from baseline to Week 24 (LOCF), LS Mean (SE): ANCOVA
# From the text: as §1
# (§2) All continuous secondary efficacy endpoints were analyzed using a similar ANCOVA model with treatment, randomization strata of screening HbA1c (<8%, ≥8%), randomization strata of screening BMI (<30 kg/m^2, ≥30 kg/m^2) and country as fixed effects and using the baseline value of the corresponding parameter as a covariate. Insulin glargine dose was not included in the ANCOVA model as a covariate since patients enrolled were insulin-naïve.
# type 2 diabetic patients [3] = assay: Fasting plasma glucose (Example 1); conditions: mITT population; for Fasting plasma glucose change from baseline to Week 24 (LOCF), LS Mean (SE): ANCOVA
# From the text: as §1, §2
# type 2 diabetic patients [4] = assay: 7-point Self-Monitored Plasma Glucose (SMPG) profile (Example 1); conditions: mITT population
# From the text: In yet another aspect of the present invention, the composition as described herein can be used for improving average 7-point SMPG profile. […] Self-monitored plasma glucose (SMPG), as used herein, is in particular the “7-point Self Monitored Plasma Glucose”. “7-point Self Monitored Plasma Glucose” in particular refers to the measurement of plasma glucose seven times a day and calculation of the average plasma glucose concentration therefrom. The “7-point Self Monitored Plasma Glucose” value is in particular an average plasma glucose concentration including fasting and postprandial conditions. In particular, measurements of plasma glucose concentration are performed pre-breakfast, post-breakfast (e.g. 2-hour post-breakfast), pre-lunch, post-lunch (e.g. 2-hour post-lunch), pre-dinner, post-dinner (e.g. 2-hour post-dinner) and at bedtime (see also FIG. 3). The treatment by the combination of the present invention, as described herein, can improve the self-monitored plasma glucose.
# as §1, §2
substance,measurement,setting,value
Gly(A21)-Arg(B31)-Arg(B32)-human insulin [Insulin Glargine],"HbA1c at Week 24 (LOCF), Mean (SD)",type 2 diabetic patients [1],6.47 (0.64) %
same,"HbA1c at Week 24 (LOCF), Median",type 2 diabetic patients [1],6.40%
same,"HbA1c change from baseline to Week 24 (LOCF), Mean (SD)",type 2 diabetic patients [1],−1.54 (0.87) %
same,"HbA1c change from baseline to Week 24 (LOCF), Median",type 2 diabetic patients [1],−1.40%
same,Number (%) of patients with HbA1c <7.0% at Week 24,type 2 diabetic patients [1],126 (78.3%) n (%)
same,Number (%) of patients with HbA1c ≤6.5% at Week 24,type 2 diabetic patients [1],104 (64.6%) n (%)
same,Percentage of patients reaching HbA1c <7% at Week 24,type 2 diabetic patients [1],78.3%
same,Percentage of patients reaching HbA1c ≤6.5% at Week 24,type 2 diabetic patients [1],64.6%
same,"HbA1c change from baseline to Week 24 (LOCF), LS Mean (SE)",type 2 diabetic patients [1],−1.64 (0.057) %
same,"HbA1c change from baseline to Week 24 (LOCF), LS Mean (SE)",type 2 diabetic patients [1]; listed as insulin glargine,−1.64%
same,"2-hour postprandial plasma glucose at Week 24 (LOCF), Mean (SD)",type 2 diabetic patients [2],11.55 (2.83) mmol/L
same,"2-hour postprandial plasma glucose at Week 24 (LOCF), Median",type 2 diabetic patients [2],11.10 mmol/L
same,"2-hour postprandial plasma glucose change from baseline to Week 24 (LOCF), Mean (SD)",type 2 diabetic patients [2],−3.96 (4.05) mmol/L
same,"2-hour postprandial plasma glucose change from baseline to Week 24 (LOCF), Median",type 2 diabetic patients [2],-3.90 mmol/L
same,"2-hour postprandial plasma glucose change from baseline to Week 24 (LOCF), LS Mean (SE)",type 2 diabetic patients [2],−4.33 (0.274) mmol/L
same,"2-hour postprandial plasma glucose change from baseline to Week 24 (LOCF), LS Mean (SE)",type 2 diabetic patients [2]; listed as insulin glargine,-4.33 mmol/L
same,"Fasting plasma glucose at Week 24 (LOCF), Mean (SD)",type 2 diabetic patients [3],6.20 (1.35) mmol/L
same,"Fasting plasma glucose at Week 24 (LOCF), Median",type 2 diabetic patients [3],5.95 mmol/L
same,"Fasting plasma glucose change from baseline to Week 24 (LOCF), Mean (SD)",type 2 diabetic patients [3],−3.28 (2.39) mmol/L
same,"Fasting plasma glucose change from baseline to Week 24 (LOCF), Median",type 2 diabetic patients [3],-3.00 mmol/L
same,"Fasting plasma glucose change from baseline to Week 24 (LOCF), LS Mean (SE)",type 2 diabetic patients [3],−3.51 (0.128) mmol/L
same,"Fasting plasma glucose change from baseline to Week 24 (LOCF), LS Mean (SE)",type 2 diabetic patients [3]; listed as insulin glargine,-3.51 mmol/L
same,"Average 7-point SMPG at Week 24 (LOCF), Mean (SD)",type 2 diabetic patients [4],7.01 (1.15) mmol/L
same,"Average 7-point SMPG at Week 24 (LOCF), Median",type 2 diabetic patients [4],6.94 mmol/L
same,"Average 7-point SMPG change from baseline to Week 24 (LOCF), Mean (SD)",type 2 diabetic patients [4],−2.81 (2.18) mmol/L
same,"Average 7-point SMPG change from baseline to Week 24 (LOCF), Median",type 2 diabetic patients [4],-2.31 mmol/L
same,"Average 7-point SMPG change from baseline to Week 24 (LOCF), LS Mean (SE)",type 2 diabetic patients [4]; ANCOVA,−2.93 (0.101) mmol/L
